Data on 5 molecules can be found in patent US20150047066A1, “PLANT HAVING INCREASED RESISTANCE OR SUSCEPTIBILITY TO 4-HPPD INHIBITOR” (TOYAMA PREFECTURE, priority 2010, published 2015).

Experiment [1] deals with A. thaliana (ecotype Columbia). Nature of the experiment: BBC whitening of wildtype A. thaliana on agar medium. The following applies: agar medium containing 0.03 μM BBC. The class given is in vivo, Arabidopsis thaliana. As for the experimental part:
Whether or not a protein encoded by a particular gene has an activity of providing a plant with resistance to a 4-HPPD inhibitor can be determined, for example, by introducing the gene into a plant, and assaying whether or not the plant thus produced is provided with the resistance as described in Examples later (see Example 2). Specifically, in a case of using A. thaliana (ecotype Columbia) that would be whitened by an agar medium containing 0.03 μM BBC, if a transformant produced by introducing the gene into A. thaliana can grow without being whitened in the presence of BBC at the above concentration, the protein encoded by the gene can be determined to have an activity of providing a plant with resistance to a 4-HPPD inhibitor. Moreover, in a case of using a BBC susceptible rice cultivar “Kanto 239” that would be whitened by an agar medium containing 0.1 μM BBC, if a transformant produced by introducing the gene into Kanto 239 can grow without being whitened in the presence of BBC at the above concentration, the protein encoded by the gene can be determined to have an activity of providing a plant with resistance to a 4-HPPD inhibitor.

In experiment [2] the test system is A. thaliana recombinants having the target gene introduced therein. Nature of the experiment: BBC resistance assay on A. thaliana recombinants (T2) having the target gene (AK065581, HIS1) introduced. Type of experiment: in vivo, Arabidopsis thaliana. Conditions: HIS1 recombinants T2 generation, agar medium containing 0.03 μM BBC. As for the experimental part:
For transformation of A. thaliana, ecotype “Columbia” was used, and a Floral dip method was performed (see Weigel and Glazebrook, Arabidopsis, a laboratory manual, Cold Spring Harbor Laboratory Press (2002) p131-132). Specifically, first, Agrobacterium was shake-cultured in a liquid medium (LB or YEB) containing an antibiotic. Approximately 16 hours later, 2 ml of the culture solution was added to a liquid medium (LB or YEB) containing an antibiotic, and further shake-cultured. Then, the culture solution obtained approximately 16 hours thereafter was centrifuged at 8000 rpm at 4° C. for 10 minutes. The supernatant liquid was discarded, and the resulting precipitate was suspended in 500 ml of a solution containing 5% sucrose. Subsequently, immediately before the transformation, a transformation reagent silwet (registered trademark: SILWET L-77, product number: BMS-SL7755, manufactured by Bio Medical Science Inc.) was added thereto at a final concentration of 0.025%. Then, into the Agrobacterium suspension thus obtained, Arabidopsis from which already flowered and pollinated buds had been removed was dipped for 30 to 120 seconds. Thereafter, the plants were left standing for 16 hours and then grown to obtain the seeds. […]

The test system of experiment [3] is BBC susceptible rice cultivar Kanto 239. Nature of the experiment: BBC whitening of wildtype susceptible rice on agar medium. The class given is in vivo. The following applies: Kanto 239 wildtype, agar medium containing 0.1 μM BBC. As for the experimental part:
Whether or not a protein encoded by a particular gene has an activity of providing a plant with resistance to a 4-HPPD inhibitor can be determined, for example, by introducing the gene into a plant, and assaying whether or not the plant thus produced is provided with the resistance as described in Examples later (see Example 2). Specifically, in a case of using A. thaliana (ecotype Columbia) that would be whitened by an agar medium containing 0.03 μM BBC, if a transformant produced by introducing the gene into A. thaliana can grow without being whitened in the presence of BBC at the above concentration, the protein encoded by the gene can be determined to have an activity of providing a plant with resistance to a 4-HPPD inhibitor. Moreover, in a case of using a BBC susceptible rice cultivar “Kanto 239” that would be whitened by an agar medium containing 0.1 μM BBC, if a transformant produced by introducing the gene into Kanto 239 can grow without being whitened in the presence of BBC at the above concentration, the protein encoded by the gene can be determined to have an activity of providing a plant with resistance to a 4-HPPD inhibitor. […]

Experiment [4] deals with rice recombinants (Kanto 239) having the target gene (AK065581) introduced therein. Nature of the experiment: BBC resistance assay on rice recombinants (T0, HIS1) in composted soil. Type of experiment: in vivo. The following applies: HIS1 recombinants T0 generation, composted soil treated with BBC at 300 ga.i./ha. As for the experimental part:
(§1) For transformation of rice, a BBC susceptible rice cultivar Kanto 239 was used, and the method described in “Taniguchi et al., Plant Cell Rep., 2010, vol. 29, iss. 11, pp. 1287 to 1295” was performed with some modification. Specifically, first, sterilized mature seeds were sown on an N6D medium. After culturing at 30° C. for 7 days, the seeds were infected with Agrobacterium, and co-cultured in an acetosyringone (AS)-containing N6 medium (2N6-AS medium) under a dark condition at 25° C. for 3 days. Thereafter, the infected tissues were cultured in a carbenicillin-containing N6D medium for 4 to 6 weeks (18 hours day length) in the presence of 40 mg/L hygromycin (Hyg), and Hyg-tolerant calli were re-differentiated.
Further, recombinants (TO generation) were prepared by introducing the target gene into the BBC susceptible rice cultivar “Kanto 239” that would be whitened by an agar medium containing 0.1 μM BBC, and the growth state of the recombinants was examined in composted soil treated with BBC at 300 ga.i./ha.

The test system is the same in experiment [5]. Nature of the experiment: Triketone type 4-HPPD inhibitor resistance assay on rice recombinants (T1/T2 seeds, HIS1) on agar medium. The class given is in vivo. As for the experimental part:
as §1
Rice recombinants (T1 and T2 generations) were produced and subjected to a resistance assay with triketone type 4-HPPD inhibitors, that is, mesotrione, tefuryltrione, tembotrione, and NTBC, using commercially-available reagents at concentrations to be described later.
Furthermore, recombinants were prepared by introducing the target gene into the BBC susceptible rice cultivar “Kanto 239” that would be whitened by an agar medium containing 0.1 μM BBC, and T1 seeds or T2 seeds were obtained. These were seeded on an agar medium containing 2 μM BBC, and the growth state of the recombinants was examined. […] Moreover, the seeds were seeded on an agar medium containing 1 μM mesotrione, 2.5 μM tefuryltrione, 0.5 μM tembotrione, or 1 μM NTBC, and the growth state of the recombinants was examined. FIGS. 12 to 15 show the obtained results.

In experiment [6] the test system is BBC resistant cultivar Nipponbare. Briefly: BBC whitening of resistant rice cultivar on agar medium. Type of experiment: in vivo.
For experiment [7], the system named is rice recombinants (Kanto 239) having the homologous gene (HSL1; AK241948) introduced therein. Briefly: BBC resistance assay on rice recombinants having the HSL1 gene (AK241948) on agar medium. The class given is in vivo. The following applies: agar medium containing 0.12 μM BBC. As for the experimental part:
as §1
Specifically, recombinants were prepared by introducing the target gene into the BBC susceptible rice cultivar “Kanto 239” that would be whitened by an agar medium containing 0.1 μM BBC, and T1 seeds or T2 seeds were obtained. These were seeded on an agar medium containing 0.12 μM BBC, and the growth state of the recombinants was examined.

In experiment [8] the test system is tomato cultivar Micro-Tom. Briefly: Germination of tomato seeds on BBC agar medium. The class given is in vivo. The following applies: Micro-Tom seeds germinated on agar medium containing 0.3 μM BBC, 25° C., approximately 2 weeks. As for the experimental part: For transformation of tomatoes, a cultivar “Micro-Tom” was tested, and an Agrobacterium method was performed using vectors (35SHIS1pZK3, 35SHSL1pZK3) shown in FIGS. 5 and 7. Note that when seeds of the original cultivar Micro-Tom were germinated on an agar medium containing 0.3 μM benzobicyclon (BBC) using an incubator at 25° C., it was clearly observed approximately 2 weeks later that leaf parts thereof were whitened.

Experiment [9] has as its system Tos17-inserted lines of Nipponbare. Nature of the experiment: Linkage analysis of BBC susceptibility in Tos17-inserted lines. Type of experiment: in vivo, rice. The following applies: all progenies of six Tos17-inserted homozygous individuals. From the text: A retrotransposon Tos17 discovered in rice is activated by tissue culture, and its copies are transposed into a genome. It is known that when the transposition site is inside a gene, the gene is to be disrupted, causing a mutation (see Hirochika et al., Proc. Natl. Acad. Sci. USA, 1996, vol. 93, pp. 7783 to 7788). The present Examples utilized a rice population having accumulated mutations caused by tissue culture utilizing the phenomenon (mutant panel, database name: Tos17 mutant panel database (http://tos.nias.affrc.go.jp/ to miyao/pub/tos17/)). From the Tos17 mutant panel database, two lines were selected, in each of which Tos17 was inserted in a transcription site of a hypothetical gene of an iron/ascorbate oxidoreductase gene, which was strongly suspected of being associated with BBC susceptibility located at a gene locus specified by the QTL analysis. Then, self-fertilized seeds obtained by planting 15 individuals of each of these two lines were used to examine phenotype (BBC susceptibility) and genotype (Tos17 insertion).
Although the original cultivar “Nipponbare” of the Tos17-inserted lines is a BBC resistant cultivar, BBC susceptible individuals are derived from the lines having Tos17 inserted in the transcription site of the target gene. […]

The subject of the next experiment is KHSL04. Nature of the experiment: BBC susceptibility of Koshihikari/Habataki chromosome segment substitution lines (QTL analysis). Type of experiment: in vivo, rice. The following applies: KHSL04, short arm region of chromosome 2 substituted with Habataki type. As for the experimental part: A Koshihikari/Habataki chromosome segment substitution line and Tachisugata//Tachisugata/Momiroman BC1F4 were tested. Specifically, Koshihikari/Habataki chromosome segment substitution lines (KHSL) were analyzed, in which a portion of chromosome fragments of a resistant cultivar Koshihikari serving as the genetic background was substituted with a chromosome of an indica type susceptible cultivar Habataki. Note that KHSL consists of 32 lines, and enables analysis on all of the whole 12 chromosomes of Habataki (as to KHSL, see Kazumasa Murata et al., “Development and evaluation of CSSLs carrying overlapping chromosome segments of rice cultivar Habataki in a genetic background of cultivar Koshihikari, ” Breeding Research, Mar. 27, 2009, vol. 11, supplement issue 1, p. 66). In addition, 94 BC1F4 lines obtained by one-time backcrossing of a resistant cultivar Tachisugata to a susceptible cultivar Momiroman were analyzed using 80 SSR markers (as to the SSR markers used, see “Development and mapping of 2240 new SSR markers for rice (Oryza sativa L.)”, DNA Res, 2002, vol. 9, iss. 6, pp. 199 to 207, and http://www.gramene.org/).
Accordingly, the QTL analysis was performed as described above on the Koshihikari/Habataki chromosome segment substitution lines (KHSL) using the BBC resistant rice cultivar “Koshihikari” and the susceptible rice cultivar “Habataki”.

Experiment [10] has as its system Momiroman, Takanari, Kasalath. Nature of the experiment: BBC susceptibility level of susceptible rice cultivars. Conditions: Momiroman and Takanari in comparison with Kasalath. Type of experiment: in vivo.

As to `CS(=O)(=O)c1ccc(C(=O)C2=C(Sc3ccccc3)C3CCC(C3)C2=O)c(Cl)c1` (stereo not shown) [BBC, benzobicyclon], the “whitening of the plant” value is “whitened” in [1], “whitened” in experiment [3], “not whitened” in experiment [6] (0.12 μM BBC) and “sufficient to whiten” in experiment [6] (agar medium 2 μM BBC). The “growth state of the recombinants” value in [2], in experiment [4], in experiment [5] (agar medium treated with 2 μM BBC) and in [7] was “grew without being whitened” in each case. In addition, the “whitening of leaf parts” value in experiment [8] was “whitened”. Also, the “phenotype (BBC susceptibility)” value in [9] is on record as “showed BBC susceptibility”. For the same molecule, the BBC susceptibility entry in the experiment with KHSL04 was “showed susceptibility”. Besides, the “degree of BBC susceptibility” value in experiment [10] is “high BBC susceptibility”.
As for `O=C1CCCC(=O)C1C(=O)c1ccc(C(F)(F)F)cc1[N+](=O)[O-]` [NTBC, 2-(2-nitro-4-trifluoromethylbenzoyl)cyclohexane-1,3-dione], the “growth state of the recombinants” value in experiment [5] (agar medium treated with 1 μM NTBC) was “grew without being whitened”.
As to `CS(=O)(=O)c1ccc(C(=O)C2C(=O)CCCC2=O)c([N+](=O)[O-])c1` [mesotrione], in experiment [5] (agar medium treated with 1 μM mesotrione), the “growth state of the recombinants” value was “grew without being whitened”.
With `CS(=O)(=O)c1ccc(C(=O)C2C(=O)CCCC2=O)c(Cl)c1COCC1CCCO1` (stereo not shown) [tefuryltrione], in experiment [5] (agar medium treated with 2.5 μM tefuryltrione), the “growth state of the recombinants” value is reported as “grew without being whitened”.
For the molecule `CS(=O)(=O)c1ccc(C(=O)C2C(=O)CCCC2=O)c(Cl)c1COCC(F)(F)F` [tembotrione], the “growth state of the recombinants” value in experiment [5] (agar medium treated with 0.5 μM tembotrione) is reported as “grew without being whitened”.
